Data reported in patent US12391679B2, “Benzamide-substituted bicyclic imidazo- and pyrazolo-fused -pyridine, -pyrimide, and -pyridazine compounds for treatment of inflammatory diseases” (ONCO3R Therapeutics BV, priority 2019, dated 2025).

Columns and labels:
Assay type in all cases: biochemical
[1] = target: T1, SIK1 (Homo sapiens, UniProt P57059); experiment: ADP-Glo kinase assay, SIK1
T1 construct: purchased Carna Biosciences 02-131
Summary of the method: (§1)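 Luminescent ADP-formation read-out: enzyme–substrate mix + ATP, 120 min RT; ATP depletion 40 min RT; ADP→ATP conversion with luciferase/luciferin 30 min RT. Controls: 1% DMSO (negative), 10 μM staurosporine final (positive).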

[2] = target: T2, SIK2 (Homo sapiens, UniProt Q9H0K1); experiment: ADP-Glo kinase assay, SIK2
T2 construct: purchased ThermoFisher Scientific PV4792
Summary of the method: as §1

[3] = target: T3, SIK3 (Homo sapiens, UniProt Q9Y2K2); experiment: ADP-Glo kinase assay, SIK3
T3 construct: purchased SignalChem S12-11G-100
Summary of the method: as §1

T3 sequence (Q9Y2K2 59-365 limits assumed): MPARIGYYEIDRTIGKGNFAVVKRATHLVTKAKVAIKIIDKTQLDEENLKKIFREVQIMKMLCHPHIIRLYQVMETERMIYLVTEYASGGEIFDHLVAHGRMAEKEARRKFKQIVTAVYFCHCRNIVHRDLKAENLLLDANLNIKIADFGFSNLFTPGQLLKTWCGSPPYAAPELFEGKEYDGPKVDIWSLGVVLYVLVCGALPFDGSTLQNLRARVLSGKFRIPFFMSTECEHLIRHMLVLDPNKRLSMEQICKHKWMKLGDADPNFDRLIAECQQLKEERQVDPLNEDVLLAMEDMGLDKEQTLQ
T1 sequence (P57059 whole entry): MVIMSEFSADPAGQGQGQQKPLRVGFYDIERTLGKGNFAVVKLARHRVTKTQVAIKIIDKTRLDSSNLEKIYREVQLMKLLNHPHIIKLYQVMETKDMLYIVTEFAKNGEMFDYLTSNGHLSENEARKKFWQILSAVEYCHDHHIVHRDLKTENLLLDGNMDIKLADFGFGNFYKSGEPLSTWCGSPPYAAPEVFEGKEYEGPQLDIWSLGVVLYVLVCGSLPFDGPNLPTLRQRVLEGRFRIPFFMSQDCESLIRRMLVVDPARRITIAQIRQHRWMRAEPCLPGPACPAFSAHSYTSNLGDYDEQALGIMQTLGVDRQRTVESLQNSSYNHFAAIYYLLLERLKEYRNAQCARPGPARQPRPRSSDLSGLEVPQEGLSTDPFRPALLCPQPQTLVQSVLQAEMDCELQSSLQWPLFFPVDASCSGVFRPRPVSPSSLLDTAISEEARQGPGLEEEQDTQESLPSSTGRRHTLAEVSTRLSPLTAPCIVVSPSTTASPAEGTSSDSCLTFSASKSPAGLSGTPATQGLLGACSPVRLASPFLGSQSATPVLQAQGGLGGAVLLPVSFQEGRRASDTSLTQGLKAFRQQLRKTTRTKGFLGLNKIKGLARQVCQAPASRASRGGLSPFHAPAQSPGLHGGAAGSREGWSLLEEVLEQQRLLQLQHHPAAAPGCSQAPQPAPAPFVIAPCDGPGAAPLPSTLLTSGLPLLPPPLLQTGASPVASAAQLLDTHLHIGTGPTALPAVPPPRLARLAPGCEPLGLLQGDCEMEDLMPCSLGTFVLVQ
T2 sequence (Q9H0K1 whole entry): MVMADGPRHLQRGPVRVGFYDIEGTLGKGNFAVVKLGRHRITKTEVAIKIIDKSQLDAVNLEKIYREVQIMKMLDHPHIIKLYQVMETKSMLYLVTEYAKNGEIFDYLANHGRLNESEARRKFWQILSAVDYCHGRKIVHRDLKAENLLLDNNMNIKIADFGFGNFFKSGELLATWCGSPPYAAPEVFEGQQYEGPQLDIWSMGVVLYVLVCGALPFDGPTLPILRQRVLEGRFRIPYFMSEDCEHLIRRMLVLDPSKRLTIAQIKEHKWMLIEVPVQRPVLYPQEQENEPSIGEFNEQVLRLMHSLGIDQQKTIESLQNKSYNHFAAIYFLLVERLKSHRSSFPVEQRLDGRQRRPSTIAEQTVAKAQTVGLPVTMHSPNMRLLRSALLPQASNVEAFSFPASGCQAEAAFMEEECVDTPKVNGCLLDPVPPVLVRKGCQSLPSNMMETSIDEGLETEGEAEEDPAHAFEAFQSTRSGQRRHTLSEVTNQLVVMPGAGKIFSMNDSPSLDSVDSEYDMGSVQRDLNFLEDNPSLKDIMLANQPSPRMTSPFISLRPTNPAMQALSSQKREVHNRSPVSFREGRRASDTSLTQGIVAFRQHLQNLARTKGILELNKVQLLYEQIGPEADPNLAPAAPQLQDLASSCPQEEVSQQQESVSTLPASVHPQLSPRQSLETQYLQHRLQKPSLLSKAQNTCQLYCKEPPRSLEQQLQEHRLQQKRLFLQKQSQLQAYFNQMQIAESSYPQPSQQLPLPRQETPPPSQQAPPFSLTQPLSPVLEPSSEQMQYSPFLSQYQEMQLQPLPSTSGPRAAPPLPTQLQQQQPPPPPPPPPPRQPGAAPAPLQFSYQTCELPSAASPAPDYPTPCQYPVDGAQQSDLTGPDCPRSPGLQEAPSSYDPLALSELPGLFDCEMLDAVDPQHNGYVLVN

Row | IC50 [1] | IC50 [2] | IC50 [3] | Compound
1 | > 500 nM | > 500 nM | 100 to 500 nM | COc1cc(-c2cnc3cc(C(C)(C)C#N)ccn23)cc(OC(F)F)c1C(=O)N1CCC1CO (stereo not drawn) [Cpd 105, 2-[3-[3-(difluoromethoxy)-4-[2-(hydroxymethyl)azetidine-1-carbonyl]-5-methoxy-phenyl]imidazo[1,2-a]pyridin-7-yl]-2-methyl-propanenitrile]
2 | > 500 nM | > 500 nM | 10 to 100 nM | COc1cc(-c2cnc3cc(C(C)(C)C#N)ccn23)cc2c1C(=O)NC2 [Cpd 111, 2-[3-(7-methoxy-1-oxo-isoindolin-5-yl)imidazo[1,2-a]pyridin-7-yl]-2-methyl-propanenitrile]
3 | > 500 nM | > 500 nM | 10 to 100 nM | COc1cc(-c2cnc3cc(C4(C(=O)O)CC4)ccn23)cc(OC(F)F)c1C(=O)NC1CC1 [Cpd 114, 1-[3-[4-(cyclopropylcarbamoyl)-3-(difluoromethoxy)-5-methoxy-phenyl]imidazo[1,2-a]pyridin-7-yl]cyclopropanecarboxylic acid]
4 | > 500 nM | > 500 nM | 10 to 100 nM | COc1cc(-c2cnc3cc(C(C)(C)OC)ncn23)cc(OC(F)F)c1C(=O)NC1CC1 [Cpd 118, N-cyclopropyl-2-(difluoromethoxy)-6-methoxy-4-[7-(1-methoxy-1-methyl-ethyl)imidazo[1,2-c]pyrimidin-3-yl]benzamide]
5 | > 500 nM | > 500 nM | 100 to 500 nM | COc1cc(-c2cnc3cc(C(C)(C)O)ncn23)cc(OC(F)F)c1C(=O)NC1CC1 [Cpd 119, N-cyclopropyl-2-(difluoromethoxy)-4-[7-(1-hydroxy-1-methyl-ethyl)imidazo[1,2-c]pyrimidin-3-yl]-6-methoxy-benzamide]
6 | > 500 nM | > 500 nM | 100 to 500 nM | CCC(O)(CC)c1ccn2c(-c3cc(OC)c(C(=O)NC4CC4)c(OC(F)F)c3)cnc2c1 [Cpd 124, N-cyclopropyl-2-(difluoromethoxy)-4-[7-(1-ethyl-1-hydroxy-propyl)imidazo[1,2-a]pyridin-3-yl]-6-methoxy-benzamide]
7 | > 500 nM | > 500 nM | 10 to 100 nM | CCC(CC)(OC)c1ccn2c(-c3cc(OC)c(C(=O)NC4CC4)c(OC(F)F)c3)cnc2c1 [Cpd 126, N-cyclopropyl-2-(difluoromethoxy)-4-[7-(1-ethyl-1-methoxy-propyl)imidazo[1,2-a]pyridin-3-yl]-6-methoxy-benzamide]
8 | > 500 nM | > 500 nM | 100 to 500 nM | COc1cc(-c2cnc3cc(C4(C(=O)N5CCOCC5)CC4)ccn23)cc(OC(F)F)c1C(=O)NC1CC1 [Cpd 141, N-cyclopropyl-2-(difluoromethoxy)-6-methoxy-4-[7-[1-(morpholine-4-carbonyl)cyclopropyl]imidazo[1,2-a]pyridin-3-yl]benzamide]
9 | > 500 nM | > 500 nM | 10 to 100 nM | COCCNC(=O)C1(c2ccn3c(-c4cc(OC)c(C(=O)NC5CC5)c(OC(F)F)c4)cnc3c2)CC1 [Cpd 142, N-cyclopropyl-2-(difluoromethoxy)-6-methoxy-4-[7-[1-(2-methoxyethylcarbamoyl)cyclopropyl]imidazo[1,2-a]pyridin-3-yl]benzamide]
10 | > 500 nM | > 500 nM | 100 to 500 nM | CCN(CC)C(=O)C1(c2ccn3c(-c4cc(OC)c(C(=O)NC5CC5)c(OC(F)F)c4)cnc3c2)CC1 [Cpd 143, N-cyclopropyl-4-[7-[1-(diethylcarbamoyl)cyclopropyl]imidazo[1,2-a]pyridin-3-yl]-2-(difluoromethoxy)-6-methoxy-benzamide]

Second part, the molecule before the results:

Row | Compound | IC50 [1] | IC50 [2] | IC50 [3]
11 | COc1cc(-c2cnc3cc(C4CCOCC4)ccn23)cc(OC(F)F)c1C(=O)NC1CC1 [Cpd 108, N-cyclopropyl-2-(difluoromethoxy)-6-methoxy-4-(7-tetrahydropyran-4-ylimidazo[1,2-a]pyridin-3-yl)benzamide] | 100 to 500 nM | 10 to 100 nM | 0.01 to 10 nM
12 | COc1cc(-c2cnc3cc(C4CCOCC4)ncn23)cc(OC(F)F)c1C(=O)NC1CC1 [Cpd 109, N-cyclopropyl-2-(difluoromethoxy)-6-methoxy-4-(7-tetrahydropyran-4-ylimidazo[1,2-c]pyrimidin-3-yl)benzamide] | > 500 nM | > 500 nM | > 500 nM
13 | COc1cc(-c2cnc3cc(C4(C#N)CNC4)ccn23)cc(OC(F)F)c1C(=O)NC1CC1 [Cpd 110, 4-[7-(3-cyanoazetidin-3-yl)imidazo[1,2-a]pyridin-3-yl]-N-cyclopropyl-2-(difluoromethoxy)-6-methoxy-benzamide] | > 500 nM | > 500 nM | 10 to 100 nM
14 | COc1cc(-c2cnn3cc(C4CCOCC4)ccc23)cc(OC(F)F)c1C(=O)NC1CC1 [Cpd 112, N-cyclopropyl-2-(difluoromethoxy)-6-methoxy-4-(6-tetrahydropyran-4-ylpyrazolo[1,5-a]pyridin-3-yl)benzamide] | > 500 nM | 10 to 100 nM | 0.01 to 10 nM
15 | COc1cc(-c2cnc3cc(C4(CO)CC4)ccn23)cc(OC(F)F)c1C(=O)NC1CC1 [Cpd 115, N-cyclopropyl-2-(difluoromethoxy)-4-[7-[1-(hydroxymethyl)cyclopropyl]imidazo[1,2-a]pyridin-3-yl]-6-methoxy-benzamide] | 100 to 500 nM | 10 to 100 nM | 0.01 to 10 nM
16 | COc1cc(-c2cnc3cc(C4(C#N)CN(C(C)=O)C4)ccn23)cc(OC(F)F)c1C(=O)NC1CC1 [Cpd 122, 4-[7-(1-acetyl-3-cyano-azetidin-3-yl)imidazo[1,2-a]pyridin-3-yl]-N-cyclopropyl-2-(difluoromethoxy)-6-methoxy-benzamide] | > 500 nM | > 500 nM | 10 to 100 nM
17 | COc1cc(-c2cnc3cc(C4(C#N)COC4)ccn23)cnc1C(=O)NCC(F)(F)F [Cpd 125, 5-[7-(3-cyanooxetan-3-yl)imidazo[1,2-a]pyridin-3-yl]-3-methoxy-N-(2,2,2-trifluoroethyl)pyridine-2-carboxamide] | > 500 nM | > 500 nM | > 500 nM
18 | COc1cc(-c2cnc3cc(C(C)(C)C#N)ccn23)cnc1C(=O)NCC(F)(F)F [Cpd 127, 5-[7-(1-cyano-1-methyl-ethyl)imidazo[1,2-a]pyridin-3-yl]-3-methoxy-N-(2,2,2-trifluoroethyl)pyridine-2-carboxamide] | > 500 nM | > 500 nM | 100 to 500 nM
19 | COC(=O)C(F)(F)c1ccn2c(-c3cc(OC)c(C(=O)NC4CC4)c(OC(F)F)c3)cnc2c1 [Cpd 131, methyl 2-[3-[4-(cyclopropylcarbamoyl)-3-(difluoromethoxy)-5-methoxy-phenyl]imidazo[1,2-a]pyridin-7-yl]-2,2-difluoro-acetate] | > 500 nM | > 500 nM | 0.01 to 10 nM
20 | COc1cc(-c2cnc3cc(C(F)(F)C(=O)O)ccn23)cc(OC(F)F)c1C(=O)NC1CC1 [Cpd 132, 2-[3-[4-(cyclopropylcarbamoyl)-3-(difluoromethoxy)-5-methoxy-phenyl]imidazo[1,2-a]pyridin-7-yl]-2,2-difluoro-acetic acid] | 100 to 500 nM | 100 to 500 nM | 0.01 to 10 nM
21 | COc1cc(-c2cnc3cc(C(C)(O)C4CCOCC4)ccn23)cc(OC(F)F)c1C(=O)NC1CC1 (stereo not drawn) [Cpd 134, N-cyclopropyl-2-(difluoromethoxy)-4-[7-(1-hydroxy-1-tetrahydropyran-4-yl-ethyl)imidazo[1,2-a]pyridin-3-yl]-6-methoxy-benzamide] | > 500 nM | > 500 nM | 10 to 100 nM
